# Test results published in paper PMC9623604 (European journal of pharmacology, 2022).
# Target: mitochondrial complex I (NADH:ubiquinone oxidoreductase) (Mus musculus, UniProt P03888+Q91WD5+Q9DC70)
# Format: biochemical
compound,measurement,value
CN(C)C(=N)N=C(N)N [metformin],IC50,~2000 µM
